Paper PMC1079881, “Differential modulation of microglia superoxide anion and thromboxane B2 generation by the marine manzamines” (BMC Pharmacology, 2005)
Like-named read-outs stand apart in the source and are kept apart here.

Key:
[1] = tested on: LPS-activated rat neonatal microglia; assay: OPZ-stimulated O2^- generation by LPS-activated rat neonatal microglia (SOD-inhibitable FCC reduction); assay type: cell-based; details: for IC50: OPZ 0.5 mg/mL, 70 min, LPS 0.3 ng/mL 17 h; for effect on OPZ-stimulated O2^- generation: even at 10 μM
Experimental: (§1) All experiments were performed with adherence to the National Institutes of Health guidelines on the use of experimental animals and with protocols approved by Midwestern University's Research and Animal Care Committee. To isolate rat neonatal microglia, cerebral cortices of 1–2 day-old Sprague-Dawley rats purchased from Harlan (Indianapolis, IN) were surgically removed and placed in cold DMEM + 10% FBS + 120 U/ml P and 12 μg/ml S, the meninges carefully removed, and brain tissue minced and dissociated with trypsin-EDTA at 36°C for 3–5 min. The mixed astroglial cell suspension was plated in either 75- or 162-cm^2 vented cell culture flasks with DMEM medium supplemented with 10% FBS + 120 U/ml P + 12 μg/ml S and grown in a humidified 5% CO2 incubator at 36°C for 12–14 days. […] Microglia were characterized as described earlier.
(§2) To study the effects of manzamines A, B, C, D, E and F on the generation of TXB2 and O2^-, rat neonatal microglia (2 × 10^5 cells/24-well cell culture clusters) were treated to the following protocol. Seventeen hours prior to the experiments, microglia cells were treated with LPS (0.3 ng/ml) in a final volume of 1 ml of DMEM supplemented with 10% FBS + 120 U/ml P + 12 μg/ml. […] O2^-, TXB2 and lactate dehydrogenase (LDH) release were assayed as described below.
(§3) O2^- generation was determined by the SOD-inhibitable reduction of FCC [23]. […] All experimental treatments were run in triplicate and in a final volume of 1 ml. Changes in FCC absorbance were measured at 550 nm using a Beckman DU-650 spectrophotometer.

[2] = tested on: LPS-activated rat neonatal microglia; assay: OPZ-stimulated TXB2 generation by LPS-activated rat neonatal microglia (immunoassay); assay type: cell-based; details: for IC50 / inhibition at 10 µM: Rattus norvegicus, Microglia; for IC50: OPZ 0.5 mg/mL, 70 min, LPS 0.3 ng/mL 17 h; for inhibition at 10 µM / OPZ-stimulated TXB2 released / OPZ-stimulated TXB2 generation, % of control: at 10 μM
Experimental: as §1, §2
(§4) Following the incubation of LPS-activated microglia with HBSS, manzamines or vehicle as explained above, PMA- (1 μM) or OPZ- (0.5 mg/mL)triggered TXB2 generation in the culture supernatants was measured using immunoassays (Cayman Chemical, Ann Arbor, MI) as indicated by the manufacturer's protocol. Results were expressed as pg/mL produced after 70 min of PMA or OPZ stimulation.

[3] = tested on: LPS-activated rat neonatal microglia; assay: PMA-stimulated O2^- generation by LPS-activated rat neonatal microglia (SOD-inhibitable FCC reduction); assay type: cell-based; details: for IC50 / inhibition at 10 µM: Rattus norvegicus, Microglia; for IC50: PMA 1 μM, 70 min, LPS 0.3 ng/mL 17 h
Experimental: as §1, §2, §3

[4] = tested on: LPS-activated rat neonatal microglia; assay: PMA-stimulated TXB2 generation by LPS-activated rat neonatal microglia (immunoassay); assay type: cell-based; details: for IC50 / inhibition at 10 µM: Rattus norvegicus, Microglia; for IC50: PMA 1 μM, 70 min, LPS 0.3 ng/mL 17 h, manzamine added 15 min before; for inhibition at 10 µM: read-out: maximum inhibition of PMA-stimulated TXB2 generation; for inhibition at 10 µM / PMA-stimulated TXB2 released / PMA-stimulated TXB2 release, % of control: at 10 μM
Experimental: as §1, §2, §4

[5] = set-up: method as in PMID 10817722; details: cited from earlier work
[6] = biological target: hypoxanthine-xanthine oxidase system (Homo sapiens, UniProt P47989); assay: Cell-free O2^- generation by hypoxanthine-xanthine oxidase system (scavenging test); assay type: biochemical; details: for O2^- generated by hypoxanthine-xanthine oxidase system: control (DMSO) 12 ± 1.1, test concentration not given
Sequence of hypoxanthine-xanthine oxidase system (P47989 whole entry): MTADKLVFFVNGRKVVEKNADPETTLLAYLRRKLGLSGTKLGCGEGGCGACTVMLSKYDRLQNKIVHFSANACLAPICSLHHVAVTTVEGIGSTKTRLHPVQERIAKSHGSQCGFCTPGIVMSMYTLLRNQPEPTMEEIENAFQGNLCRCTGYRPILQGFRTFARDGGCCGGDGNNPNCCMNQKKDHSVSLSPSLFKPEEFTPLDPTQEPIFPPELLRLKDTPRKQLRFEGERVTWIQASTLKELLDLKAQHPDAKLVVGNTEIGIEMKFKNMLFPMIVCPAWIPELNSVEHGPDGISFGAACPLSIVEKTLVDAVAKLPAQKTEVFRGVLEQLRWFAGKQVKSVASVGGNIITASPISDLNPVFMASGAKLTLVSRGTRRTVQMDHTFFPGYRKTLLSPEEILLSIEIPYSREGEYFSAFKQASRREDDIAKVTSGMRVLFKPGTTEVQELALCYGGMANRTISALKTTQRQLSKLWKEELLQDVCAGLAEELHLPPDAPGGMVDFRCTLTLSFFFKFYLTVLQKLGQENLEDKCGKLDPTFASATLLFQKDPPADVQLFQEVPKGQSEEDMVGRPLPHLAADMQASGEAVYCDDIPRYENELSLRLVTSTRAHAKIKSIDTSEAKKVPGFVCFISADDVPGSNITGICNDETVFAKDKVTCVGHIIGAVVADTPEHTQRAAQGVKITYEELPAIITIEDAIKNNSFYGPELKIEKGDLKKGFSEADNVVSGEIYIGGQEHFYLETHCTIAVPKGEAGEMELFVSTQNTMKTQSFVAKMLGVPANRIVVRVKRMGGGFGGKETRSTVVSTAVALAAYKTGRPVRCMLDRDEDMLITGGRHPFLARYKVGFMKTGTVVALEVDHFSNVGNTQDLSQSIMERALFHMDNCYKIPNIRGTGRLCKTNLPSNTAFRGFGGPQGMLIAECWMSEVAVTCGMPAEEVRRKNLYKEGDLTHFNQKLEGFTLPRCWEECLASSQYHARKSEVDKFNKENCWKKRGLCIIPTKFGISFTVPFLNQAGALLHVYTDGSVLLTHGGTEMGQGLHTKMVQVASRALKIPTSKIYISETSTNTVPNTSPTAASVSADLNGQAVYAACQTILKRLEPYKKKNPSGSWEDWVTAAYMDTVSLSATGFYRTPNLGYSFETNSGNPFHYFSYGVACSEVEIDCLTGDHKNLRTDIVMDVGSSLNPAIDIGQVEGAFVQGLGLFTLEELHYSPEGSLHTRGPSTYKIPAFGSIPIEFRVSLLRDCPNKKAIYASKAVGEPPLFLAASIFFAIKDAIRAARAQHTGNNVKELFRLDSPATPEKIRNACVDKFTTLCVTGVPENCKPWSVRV
Experimental: A standard hypoxanthine-xanthine oxidase system was used as a cell-free source of O2^-. O2^- was generated by incubation of purified xanthine oxidase (0.02 Units/ml) with hypoxanthine (1.5 mM) at 37°C [21]. O2^- formation was assessed spectrophotometrically as the increase in absorbance at 550 nm associated with the SOD (30 U/mL)-inhibitable reduction FCC (50 μM) as described above for rat microglia O2^- generation and expressed in nmoles/30 minutes.

[7] = tested on: LPS-activated rat neonatal microglia; assay: LDH release (cytotoxicity) from LPS-activated rat neonatal microglia; assay type: cell-based
Experimental: as §2, with “μg/ml. Thereafter the media was removed and replaced with 1 ml warm HBSS, one of the manzamines (0.1–10 μM final concentration) or vehicle (DMSO) was added, and the microglia incubated for fifteen minutes in a humidified 5% CO2 incubator at 35.9°C. After the fifteen minute preincubation period with either manzamines or vehicle, PMA (1 μM) or OPZ (0.5 mg/mL) was added and microglia incubated for 70 minutes in a humidified 5% CO2 incubator at 35.9°C in the presence of the manzamines or vehicle.” for “μg/ml.”
Lactate dehydrogenase (LDH) release from microglia was determined spectrophotometrically as described elsewhere. Microglia LDH release was expressed as a percentage of total LDH. Total LDH resulted from 0.1% Triton X-100-lysed microglia cells (intracellular LDH) plus LDH released to the extracellular medium.

[8] = tested on: LPS-induced microglia PGE2 synthesis; details: cited from earlier work
[9] = tested on: activated rat microglia; details: read-out: IC50, PMA-stimulated O2^- generation in microglia; cited from earlier work
[10] = read-out: apparent IC50, LPS-induced microglia PGE2 synthesis

Molecule | IC50 ([1]; Rattus norvegicus, Microglia) [µM] | IC50 [2] [µM] | OPZ-stimulated TXB2 released [2] | IC50 [3] [µM] | IC50 [4] [µM] | PMA-stimulated TXB2 released [4] | O2^- generated by hypoxanthine-xanthine oxidase system [6] [nmoles/30 min] | further results
O[C@]12C=C(c3nccc4c3[nH]c3ccccc34)[C@@H]3CCN(CCCC/C=C\CC1)C[C@@]31C[C@@H]3/C=C\CCCCN3[C@H]12 [MZA, manzamine A] | > 10 | 3.16 | 1,927 ± 474 pg of TXB2 per 200,000 microglia per 70 min | 0.1 | < 0.016 | 78.3 ± 45 pg of TXB2 per 200,000 microglia per 70 min | 15.3 ± 4.4 | OPZ-stimulated O2^- released ([1]; at 10 μM): 9.5 ± 1 O2^- nmol per 200,000 microglia per 70 min; effect on OPZ-stimulated O2^- generation [1]: did not appear to affect; inhibition at 10 µM [2]: 58%; inhibition at 10 µM ([3]; at 10 μM): 55.9 ± 6.1%; inhibition at 10 µM [4]: 95.5%; in vivo toxicity [5]: lack of significant in vivo toxicity
C1=C\CC[C@]23CN4CCCC/C=C\CC[C@@]5(O[C@H]5[C@@H](c5nccc6c5[nH]c5ccccc56)[C@@H]2CC4)[C@@H]3NCCCC/1 [MZB, manzamine B] | 4.17 | 1.44 | 1,160 ± 207 pg of TXB2 per 200,000 microglia per 70 min | 3.16 | 1.6 | 546.3 ± 281 pg of TXB2 per 200,000 microglia per 70 min | 15.3 ± 2.4 | concentrations cytotoxic to neonatal brain microglia [7]: above 1 μM; OPZ-stimulated O2^- generation, % of control ([1]; at 10 μM): 16.5 % of control; OPZ-stimulated O2^- released ([1]; at 10 μM): 1.5 ± 0.7 O2^- nmol per 200,000 microglia per 70 min; OPZ-stimulated TXB2 generation, % of control [2]: 25.6 % of control; PMA-stimulated O2^- release, % of control ([3]; at 10 μM): 20 % of control; PMA-stimulated O2^- released ([3]; at 10 μM): 2.14 ± 2.14 nmol of O2^- per 200,000 microglia per 70 min; PMA-stimulated TXB2 release, % of control [4]: 15.5 % of control
C1=C\CCCCN(CCc2nccc3c2[nH]c2ccccc23)CCCC/1 [MZC, manzamine C] | 9.3 | 3.34 | 1,345 ± 160 pg of TXB2 per 200,000 microglia per 70 min | 3.43 | 2.98 | 677 ± 293 pg of TXB2 per 200,000 microglia per 70 min | 20.7 ± 3.1 | OPZ-stimulated O2^- generation, % of control ([1]; at 10 μM): 41.6 % of control; OPZ-stimulated O2^- released ([1]; at 10 μM): 3.9 ± 0.3 O2^- nmol per 200,000 microglia per 70 min; OPZ-stimulated TXB2 generation, % of control [2]: 29.8 % of control; PMA-stimulated O2^- release, % of control ([3]; at 10 μM): 36.1 % of control; PMA-stimulated O2^- released ([3]; at 10 μM): 3.7 ± 2.2 nmol of O2^- per 200,000 microglia per 70 min; PMA-stimulated TXB2 release, % of control [4]: 19.6 % of control
O[C@]12C=C(C3NCCc4c3[nH]c3ccccc43)[C@@H]3CCN(CCCC/C=C\CC1)C[C@@]31C[C@@H]3/C=C\CCCCN3[C@H]12 (stereo partly drawn) [MZD, manzamine D] | > 10 | > 10 | 3,613 ± 469 pg of TXB2 per 200,000 microglia per 70 min | < 0.1 | 0.23 | 611 ± 342 pg of TXB2 per 200,000 microglia per 70 min | 22.2 ± 2 | effect on OPZ-stimulated O2^- generation [1]: did not affect; OPZ-stimulated TXB2 generation, % of control [2]: 79.9 % of control; PMA-stimulated O2^- release, % of control ([3]; at 0.1 μM): 14 % of control; PMA-stimulated O2^- released ([3]; at 0.1 μM): 0.7 ± 0.7 nmol of O2^- per 200,000 microglia per 70 min; PMA-stimulated TXB2 release, % of control [4]: 18.8 % of control
O=C1CCCN2[C@@H](CC1)C[C@]13CN4CCCC/C=C\CC[C@](O)(C=C(c5nccc6c5[nH]c5ccccc56)[C@@H]1CC4)[C@H]23 [MZE, manzamine E] | > 10 | > 10 | 2,594 ± 646 pg of TXB2 per 200,000 microglia per 70 min | > 10 | > 10 | 1,614 ± 628 pg of TXB2 per 200,000 microglia per 70 min | 16.3 ± 2.2 | effect on OPZ-stimulated O2^- generation [1]: did not affect; inhibition at 10 µM [2]: 43.1%; inhibition at 10 µM ([3]; at 10 μM): 26.3%; PMA-stimulated O2^- released ([3]; at 10 μM): 8.5 ± 2.1 nmol of O2^- per 200,000 microglia per 70 min; inhibition at 10 µM [4]: 49.4%
O=C1CCCN2[C@@H](CC1)C[C@]13CN4CCCC/C=C\CC[C@](O)(C=C(c5nccc6c5[nH]c5c(O)cccc56)C1CC4)[C@H]23 (stereo partly drawn) [MZF, manzamine F] | > 10 | > 10 | 3,317 ± 121 pg of TXB2 per 200,000 microglia per 70 min | > 10 | > 10 | 3,202 ± 1,139 pg of TXB2 per 200,000 microglia per 70 min | 20.1 ± 3.6 | inhibition at 10 µM ([1]; Rattus norvegicus, Microglia, at 10 μM, non-statistically significant): 15.7%; inhibition at 10 µM [2]: 26.2%; PMA-stimulated O2^- release, % of control ([3]; at 10 μM): 113 ± 14.5 % of control; PMA-stimulated O2^- released ([3]; at 10 μM): 12.8 ± 1.6 nmol of O2^- per 200,000 microglia per 70 min; PMA-stimulated TXB2 release, % of control [4]: 104.1 ± 24.7 % of control
CS(=O)(=O)Nc1ccc([N+](=O)[O-])cc1OC1CCCCC1 [NS-398] |  |  |  |  |  |  |  | IC50 [8, 10]: 0.001 to 0.005 µM
CC(=O)Oc1ccccc1C(=O)O [acetylsalicylic acid] |  |  |  |  |  |  |  | IC50 ([8]; COX-1 inhibitor, read-out: IC50, LPS-induced microglia PGE2 synthesis): 3.12 to 10 µM
C=CCN1C[C@H](C(=O)N(CCCN(C)C)C(=O)NCC)C[C@@H]2c3cccc4[nH]cc(c34)C[C@H]21 [cabergoline] |  |  |  |  |  |  |  | IC50 [9]: > 100 µM
CC(C(=O)O)c1ccc(-c2ccccc2)c(F)c1 (stereo not drawn) [flurbiprofen] |  |  |  |  |  |  |  | IC50 ([8]; COX-1 inhibitor, read-out: apparent IC50, LPS-induced microglia PGE2 synthesis): 0.1 µM
COc1ccc2c(c1)c(CC(=O)O)c(C)n2C(=O)c1ccc(Cl)cc1 [indomethacin] |  |  |  |  |  |  |  | IC50 [8, 10]: 0.001 µM
CO[C@]12C[C@@H](COC(=O)c3cncc(Br)c3)CN(C)[C@@H]1Cc1cn(C)c3cccc2c13 [nicergoline] |  |  |  |  |  |  |  | IC50 [9]: 10 to 15 µM
CCCn1cnc2c1c(=O)n(CCCCC(C)=O)c(=O)n2C [propentofylline] |  |  |  |  |  |  |  | IC50 [9]: > 100 µM
superoxide dismutase: superoxide dismutase (from bovine liver), Sigma |  |  |  |  |  |  |  | effect on hypoxanthine-xanthine oxidase O2^- generation [6]: abolished
